In the supplement of paper PMC11061612:

Key:
Assay in all cases: Bliss excess, mean over the matrix (fraction); higher = more synergy
769-P (Kidney Carcinoma) = test system: 769-P (Kidney Carcinoma)
Summary of the method: (§1)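 Bliss excess equals the observed combination effect minus the expected value EA + EB − EA·EB, where EA and EB are the effects of each agent alone. Combination Emax is the second-highest inhibition within the matrix. Inhibition was scaled from CellTiter-Glo 2.0 luminescence, with 0 set by vehicle wells and 1 by blank wells, after 72 hours of two-drug dosing of cells plated in 1536-well plates.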

[1] = test system: A2780 (Ovarian Carcinoma)
Summary of the method: as §1

IM-9 (Non-Cancerous) = test system: IM-9 (Non-Cancerous)
Summary of the method: as §1

[2] = test system: JHU-022 (Oral Cavity Carcinoma)
Summary of the method: as §1

KP-N-YN (Neuroblastoma) = test system: KP-N-YN (Neuroblastoma)
Summary of the method: as §1

[3] = test system: KYSE-220 (Esophageal Squamous Cell Carcinoma)
Summary of the method: as §1

[4] = test system: MHH-ES-1 (Ewing's Sarcoma)
Summary of the method: as §1

[5] = test system: NCI-H1703 (Squamous Cell Lung Carcinoma)
Summary of the method: as §1

Structure (SMILES) | Bliss excess (769-P (Kidney Carcinoma)) | Bliss excess [1] | Bliss excess (IM-9 (Non-Cancerous)) | Bliss excess [2] | Bliss excess (KP-N-YN (Neuroblastoma)) | Bliss excess [3] | Bliss excess [4] | Bliss excess [5]
C=CCn1c(=O)c2cnc(Nc3ccc(N4CCN(C)CC4)cc3)nc2n1-c1cccc(C(C)(C)O)n1 [AZD1775] + CCc1c2c(nc3ccc(O)cc13)-c1cc3c(c(=O)n1C2)COC(=O)[C@]3(O)CC [SN-38] (first compound max 1 µM, partner max 0.3 µM) | -0.0084 | -0.0704 | 0.0003 | -0.0638 | -0.0339 | -0.0563 | -0.0073 | -0.0341
C=CCn1c(=O)c2cnc(Nc3ccc(N4CCN(C)CC4)cc3)nc2n1-c1cccc(C(C)(C)O)n1 [AZD1775] + Nc1ccn([C@@H]2O[C@H](CO)[C@@H](O)C2(F)F)c(=O)n1 [Gemcitabine] (first compound max 1 µM, partner max 0.3 µM) | – | 0.0543 | 0.0398 | 0.0276 | – | 0.0029 | 0.0359 | 0.0364
CN(CCO)CC[C@H](CSc1ccccc1)Nc1ccc(S(=O)(=O)NC(=O)c2ccc(N3CCC([C@@H](O)c4ccccc4-c4ccc(Cl)cc4)CC3)cc2)cc1S(=O)(=O)C(F)(F)F [AZD4320] + CS(=O)(=O)CCNCc1ccc(-c2ccc3ncnc(Nc4ccc(OCc5cccc(F)c5)c(Cl)c4)c3c2)o1 [Lapatinib] (first compound max 1 µM, 7x7, partner max 10 µM) | -0.0042 | 0.0005 | 0.117 | 0.0438 | 0.0811 | 0.0087 | 0.136 | 0.0162
Cc1c2c(nn1C)CSCc1cc(n(C)n1)CSc1cc(c3ccccc3c1)OCCCc1c(C(=O)O)n(C)c3c-2c(Cl)ccc13 [AZD5991] + CC(=O)O[C@H]1C(=O)[C@@]2(C)[C@H]([C@H](OC(=O)c3ccccc3)[C@]3(O)C[C@H](OC(=O)[C@H](O)[C@@H](NC(=O)c4ccccc4)c4ccccc4)C(C)=C1C3(C)C)[C@]1(OC(C)=O)CO[C@@H]1C[C@@H]2O [Paclitaxel] (first compound max 1 µM, 7x7, partner max 3 µM) | -0.0044 | 0.0614 | 0.0008 | 0.0286 | -0.0275 | -0.006 | -0.009 | -0.0136
Cc1c2c(nn1C)CSCc1cc(n(C)n1)CSc1cc(c3ccccc3c1)OCCCc1c(C(=O)O)n(C)c3c-2c(Cl)ccc13 [AZD5991] + CS(=O)(=O)CCNCc1ccc(-c2ccc3ncnc(Nc4ccc(OCc5cccc(F)c5)c(Cl)c4)c3c2)o1 [Lapatinib] (first compound max 1 µM, 7x7, partner max 10 µM) | 0.0329 | 0.0013 | 0.0138 | 0.0807 | 0.0426 | 0.0157 | 0.0286 | -0.0374
Cc1c2c(nn1C)CSCc1cc(n(C)n1)CSc1cc(c3ccccc3c1)OCCCc1c(C(=O)O)n(C)c3c-2c(Cl)ccc13 [AZD5991] + Nc1ccn([C@@H]2O[C@H](CO)[C@@H](O)C2(F)F)c(=O)n1 [Gemcitabine] (first compound max 1 µM, 7x7, partner max 0.3 µM) | -0.0637 | -0.0035 | -0.0364 | -0.0307 | – | 0.0842 | – | -0.0604
C[C@@H]1COCCN1c1cc(C2([S@](C)(=N)=O)CC2)nc(-c2ccnc3[nH]ccc23)n1 [AZD6738] + C1CC(C1)(C(=O)[O-])C(=O)[O-].N.N.[Pt+2] [Carboplatin] (first compound max 10 µM, 7x7, partner max 10 µM) | -0.0233 | -0.0379 | 0.0081 | -0.0325 | -0.0177 | -0.0021 | -0.0078 | -0.0312
C[C@@H]1COCCN1c1cc(C2([S@](C)(=N)=O)CC2)nc(-c2ccnc3[nH]ccc23)n1 [AZD6738] + Nc1ccn([C@@H]2O[C@H](CO)[C@@H](O)C2(F)F)c(=O)n1 [Gemcitabine] (first compound max 10 µM, 7x7, partner max 0.3 µM) | -0.0475 | -0.0243 | -0.0189 | 0.0407 | – | -0.0686 | 0.0624 | -0.006
C[C@@H](Nc1cc(F)cc(F)c1)c1cc(C(=O)N(C)C)cc2c(=O)cc(N3CCOCC3)oc12 [AZD8186] + C1CN(CCC1(C(=O)N[C@@H](CCO)C2=CC=C(C=C2)Cl)N)C3=NC=NC4=C3C=CN4 [AZD5363] (first compound max 10 µM, 7x7, partner max 10 µM) | -0.0459 | -0.0411 | 0.0493 | -0.0909 | -0.0765 | -0.0132 | 0.0026 | 0.0503
C[C@@H](Nc1cc(F)cc(F)c1)c1cc(C(=O)N(C)C)cc2c(=O)cc(N3CCOCC3)oc12 [AZD8186] + CC(=O)c1c(C)c2cnc(Nc3ccc(N4CCNCC4)cn3)nc2n(C2CCCC2)c1=O [Palbociclib] (first compound max 10 µM, 7x7, partner max 10 µM) | 0.0354 | 0.0054 | 0.112 | -0.0376 | 0.0108 | -0.0494 | 0.108 | 0.0093
C[C@@H](Oc1cc(-c2cnn(C3CCNCC3)c2)cnc1N)c1c(Cl)ccc(F)c1Cl [Crizotinib] + CC1=C(C(=CC=C1)Cl)NC(=O)C2=CN=C(S2)NC3=CC(=NC(=N3)C)N4CCN(CC4)CCO [Dasatinib] (first compound max 10 µM, 7x7, partner max 2 µM) | -0.0405 | 0.051 | 0.0001 | -0.0186 | -0.0895 | -0.0166 | -0.0279 | -0.0736
C[C@@H](Oc1cc(-c2cnn(C3CCNCC3)c2)cnc1N)c1c(Cl)ccc(F)c1Cl [Crizotinib] + Cn1cnc2c(F)c(Nc3ccc(Br)cc3Cl)c(C(=O)NOCCO)cc21 [Selumetinib] (first compound max 10 µM, 7x7, partner max 10 µM) | -0.0213 | 0.0077 | -0.009 | -0.0115 | -0.105 | 0.0436 | -0.0236 | -0.0569
CS(=O)(=O)CCNCc1ccc(-c2ccc3ncnc(Nc4ccc(OCc5cccc(F)c5)c(Cl)c4)c3c2)o1 [Lapatinib] + Cn1cnc2c(F)c(Nc3ccc(Br)cc3Cl)c(C(=O)NOCCO)cc21 [Selumetinib] (first compound max 10 µM, 7x7, partner max 10 µM) | 0.0368 | -0.018 | -0.0826 | -0.0636 | -0.0666 | -0.0056 | 0.0015 | -0.0179
O=C(c1cc(Cc2n[nH]c(=O)c3ccccc23)ccc1F)N1CCN(C(=O)C2CC2)CC1 [Olaparib] + CC1(C)CCC(CN2CCN(c3ccc(C(=O)NS(=O)(=O)c4ccc(NCC5CCOCC5)c([N+](=O)[O-])c4)c(Oc4cnc5[nH]ccc5c4)c3)CC2)=C(c2ccc(Cl)cc2)C1 [Venetoclax] (first compound max 10 µM, 7x7, partner max 1 µM) | 0.0116 | -0.0044 | 0.112 | -0.0455 | 0.186 | -0.0369 | 0.0283 | -0.0065
O=C(c1cc(Cc2n[nH]c(=O)c3ccccc23)ccc1F)N1CCN(C(=O)C2CC2)CC1 [Olaparib] + CN(CC[C@H](CSC1=CC=CC=C1)NC2=C(C=C(C=C2)S(=O)(=O)NC(=O)C3=CC=C(C=C3)N4CCC(CC4)[C@H](C5=CC=CC=C5C6=CC=C(C=C6)Cl)O)S(=O)(=O)C(F)(F)F)CCO [AZD4320] (first compound max 10 µM, 7x7, partner max 1 µM) | -0.0143 | -0.0295 | 0.141 | -0.0411 | 0.0322 | -0.0169 | 0.0657 | -0.0311
O=C(c1cc(Cc2n[nH]c(=O)c3ccccc23)ccc1F)N1CCN(C(=O)C2CC2)CC1 [Olaparib] + COc1nnc2ccc(N3CCC(c4ccc(OCCN5CCN(C)C(=O)[C@H]5C)cc4)CC3)nn12 [AZD5153] (first compound max 10 µM, 7x7, partner max 1 µM) | -0.0374 | -0.0856 | 0.0107 | -0.0676 | -0.0142 | -0.045 | 0.0286 | -0.0244
O=C(c1cc(Cc2n[nH]c(=O)c3ccccc23)ccc1F)N1CCN(C(=O)C2CC2)CC1 [Olaparib] + Cc1c2c(nn1C)CSCc1cc(n(C)n1)CSc1cc(c3ccccc3c1)OCCCc1c(C(=O)O)n(C)c3c-2c(Cl)ccc13 [AZD5991] (first compound max 10 µM, 7x7, partner max 1 µM) | 0.0074 | 0.0369 | 0.0865 | -0.052 | -0.068 | -0.0573 | 0.0108 | -0.0244
